Experimental data taken from PubChem BioAssay AID449762 (Southern Research Specialized Biocontainment Screening …, 2010).
Results filed as inconclusive are left out.

Tested on: M. tuberculosis H37Rv growth inhibition, 7H9 media
Test: M. tuberculosis growth inhibition, HTS (AID 449762);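 note: bacterial growth assessed after seven days of incubation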
Settings: for IC90: measured here: IC90 growth inhibition

CN(Cc1ccc(Cl)s1)C(=O)CCl
IC50: 0.66 µM | IC90: 0.91 µM

COc1cc(C)ccc1OCCOc1c(C)cc(Cl)cc1Cl
IC50: 21.6 µM | IC90: > 100 µM

O=C(Nc1ccc(Oc2cccc(C(F)(F)F)c2)nc1)c1cccs1
IC50: 39.6 µM | IC90: > 100 µM

C=CCN(C(=O)CSc1nc2c(sc3ccccc32)c(=O)n1CCN(CC)CC)c1ccccc1
IC50: 29 µM | IC90: 36 µM

Nc1c2c(nc3ccn(Cc4ccccc4)c(=O)c13)CCC2
IC50: 13.7 µM | IC90: 33.6 µM

O=C(CCc1ccc(Oc2cc([N+](=O)[O-])cc([N+](=O)[O-])c2)cc1)N1CCCCCC1
IC50: 4.2 µM | IC90: 27 µM

COc1ccc2nc(N=NC3=C(O)CC(C)(C)CC3=O)sc2c1
IC50: 12.4 µM | IC90: 13.7 µM

CCOCCN1CCN(c2c(CC)c(C)nc3cc(-c4cc(OC)cc(OC)c4)nn23)CC1
IC50: 25.5 µM | IC90: 38.9 µM

CC(=O)c1c(C)n(C)c2ccc(OC(=O)c3ccc([N+](=O)[O-])cc3)cc12
IC50: 11.2 µM | IC90: > 100 µM

CCc1c(C)sc2nc3c(C(=O)N4CCOCC4)cc(C(=O)c4cc(F)ccc4O)cn3c(=O)c12
IC50: 47.3 µM | IC90: > 100 µM

Cc1ccc(C(=O)n2c(N)nc3ccccc32)cc1
IC50: 43.8 µM | IC90: > 100 µM

COc1ccc2cc1Oc1ccc(cc1)C[C@H]1c3c(cc(OC)c4c3Oc3c(ccc5c3[C@H](C2)N(C)CC5)O4)CCN1C
IC50: 4.9 µM | IC90: 6.44 µM

CCc1ccc(-c2cc(C)no2)cc1S(=O)(=O)NCCCN1CCN(c2ccccc2)CC1
IC50: 34.7 µM | IC90: 44.7 µM

O=C(/C=C/c1ccc(O)cc1)c1ccc(NC2=C(N3CCCCC3)C(=O)c3ccccc3C2=O)cc1
IC50: 12 µM | IC90: 13.6 µM

CCOC(=O)c1sc(NC(=O)CN2C(=O)NC3(CC(C)CC(C)(C)C3)C2=O)cc1C (stereo not given)
IC50: 21.4 µM | IC90: 40.3 µM

Cc1cccc(NS(=O)(=O)c2ccc(C(=O)N3CCN(c4ccccc4O)CC3)cc2)c1C
IC50: 75.3 µM | IC90: > 100 µM

CCN1C(N(C)CCc2c[nH]c3ccccc23)=N[C@@H](c2cccc(C(F)(F)F)c2)C(C(=O)OC)=C1C
IC50: 21.5 µM | IC90: 23.7 µM

CCCn1c(=N)c(C(=O)NCc2ccc3c(c2)OCO3)cc2c(=O)n3cccc(C)c3nc21
IC50: 19.8 µM | IC90: 29 µM

CC(C)(C)c1ccc(OCCC(=O)OCC(=O)NC(=O)NC2CCCC2)cc1
IC50: 5.45 µM | IC90: 8.58 µM

COC1=CC(=O)c2ccccc2C1=O
IC50: 16 µM | IC90: 21.9 µM

COC(=O)C1C2c3ccccc3OC1(C)N=c1s/c(=C/c3cnn(C)c3C)c(=O)n12 (stereo not given)
IC50: 0.97 µM | IC90: 13.1 µM

Cc1n[nH]c(=S)n1/N=C/c1cccc(OCc2ccccc2)c1
IC50: 75.4 µM | IC90: > 100 µM

Cn1c(NC(=S)Nc2ccccc2)nc2ccccc21
IC50: 3.71 µM | IC90: 6.27 µM

CCCc1cnc(NCCNCC(O)COc2ccc(Cl)c(Cl)c2)nc1 (stereo not given)
IC50: 17.1 µM | IC90: 22.1 µM

CC(=O)n1cc(N(C(=O)CCl)c2ccc(Cl)cc2)c2ccccc21
IC50: 1.82 µM | IC90: 3.99 µM

CN(C)C(=O)C1C2NC(=S)N(c3ccc(Cl)cc3)C1(C)Oc1ccc(Cl)cc12 (stereo not given)
IC50: 23.6 µM | IC90: 26.9 µM

COc1cc2nc(Nc3ccc(C)c(Cl)c3)nc(N)c2cc1OC
IC50: 33.2 µM | IC90: 98.8 µM

O=C(NC1CCN(C(=O)N2c3ccccc3Sc3ccccc32)CC1)c1ccccc1F
IC50: 86.1 µM | IC90: > 100 µM

COc1ccc(C(CCNCc2ccc(OC(C)C)cc2)C(C)C)cc1 (stereo not given)
IC50: 23.3 µM | IC90: 26.9 µM

CCCn1nc(C(=O)NNC(=O)c2ccc(C)c(C)c2)c2ccccc2c1=O
IC50: 11.2 µM | IC90: 15.9 µM

Cc1cccc(NC(=O)c2nc[nH]c2C(=O)N[C@H](C)c2ccccc2)c1
IC50: 3.63 µM | IC90: > 100 µM

O=C1C2C(C(=O)N1/N=C/c1ccc([N+](=O)[O-])o1)C1C=CC2C12CC2 (stereo not given)
IC50: 19 µM | IC90: 29.6 µM

Cc1cc(=O)oc2c(C)c(OCC(=O)N3CCN(C(=O)C4COc5ccccc5O4)CC3)ccc12 (stereo not given)
IC50: 61.5 µM | IC90: 86.1 µM

COc1ccc(SN=C2C(C)=CC(=O)C=C2C)cc1
IC50: 11.9 µM | IC90: 13.5 µM

Cc1onc(-c2ccccc2Cl)c1C(=O)Oc1cccc2cccnc12
IC50: 2.84 µM | IC90: 4.24 µM

CCCCCCCC(=O)N/N=C(/C)c1c(O)cc(C)oc1=O
IC90: > 100 µM

c1ccc2c(c1)ncn2CCCCOc1ccc2c(c1)CCC2
IC50: 22.8 µM | IC90: 25.7 µM

O=C(OCc1ccccc1F)c1cnc(Cl)c(Cl)c1
IC50: 13.1 µM | IC90: 49.8 µM

COc1ccc(CNc2ncnc3c2[nH]c2cc(OC)c(OC)cc23)cc1
IC50: 5.2 µM | IC90: 14.9 µM

COc1ccc(-n2nnnc2S(=O)(=O)CC(=O)N2CCCCC2)cc1
IC50: 12.7 µM | IC90: 27 µM

OC(CNCCc1ccc(C(F)(F)F)cc1)COC(c1ccccc1)c1ccccc1 (stereo not given)
IC50: 16.7 µM | IC90: 21.2 µM

CCn1c2ccccc2c2cc(CNCc3ccc(OC)cc3OC)ccc21
IC50: 12.2 µM | IC90: 14.1 µM

Cc1cc(C(=O)CCl)c(C)n1-c1cccc([N+](=O)[O-])c1
IC50: < 0.2 µM | IC90: 1.54 µM
